In patent publication US8546611B2 (priority 2008, dated 2013):
Like-named read-outs stand apart in the source and are kept apart here.

How the values were obtained:
[1] = tested on: white rat females; conditions: in vivo; for Total died: 14 days
[2] = tested on: erythroid cells isolated from the bone marrow of gamma-irradiated laboratory mice males; experiment: Radioprotective properties (micronucleus test after gamma irradiation); conditions: mice irradiated with gamma rays 1.3 Gy, then fed 48 h succinic acid 20 mg/kg body wt.; critical value 16±2
[3] = tested on: Wistar rat males; conditions: 1.5 ml of 1% succinic acid perorally 10 min prior; for Eosinophils, 6 h after / Lymphocytes, 6 h after / Number of leukocytes in 1 μl of blood, 6 h after / Segmentated cells, 6 h after: 6 h after immobilization; for Eosinophils, before / Lymphocytes, before / Number of leukocytes in 1 μl of blood, before / Segmentated cells, before: at the moment of immobilization
Experimental: Examples, illustrating the method invented, are presented below. […] SA is tested on rats endured an immobilization stress; the parameter tested is lymphocytic composition of blood, which is determined before and after stress in a blood smear taken from the caudal vein. […] A detailed description of the testing technique is given in Example 13.
The animals were fixed while lying flat on their back, with their legs secured. […] Blood was taken from the caudal vein: 10 μl for counting blood corpuscles and 20 μl for preparing a smear with its subsequent staining by Romanovsky-Giemsa).
First group: 10 min prior immobilization, the animals were injected (perorally, with the help of a stomach pump) with 1.5 ml of 1% starch solution. […] Blood was taken from the caudal vein at the moment of immobilization and 6 hours later, and stained blood smears were prepared to calculate the leukogram.

[4] = tested on: erythroid cells isolated from the bone marrow of laboratory mice males; conditions: feed with succinic acid 20 mg/kg body wt., not irradiated, norm 5.0±1.0
Experimental: The test for genotoxicity was performed on young laboratory mice males (18-20 g; 6 animals in each group). […] The control animals were given water.

[5] = tested on: patients with cardiac insufficiency; conditions: for patients of functional class I, day 30 / patients of functional class II, day 30 / patients of functional class III, day 30 / patients of functional class IV, day 30 / patients of functional class I, day 60 / patients of functional class II, day 60 / patients of functional class III, day 60 / patients of functional class IV, day 60 / patients of functional class I, day 90 / patients of functional class II, day 90 / patients of functional class III, day 90 / patients of functional class IV, day 90: 100 mg twice per day with standard therapy; for patients of functional class I, day 30 / patients of functional class II, day 30 / patients of functional class III, day 30 / patients of functional class IV, day 30: after 30 days; for patients of functional class I, day 60 / patients of functional class II, day 60 / patients of functional class III, day 60 / patients of functional class IV, day 60: after 60 days; for patients of functional class I, day 90 / patients of functional class II, day 90 / patients of functional class III, day 90 / patients of functional class IV, day 90: after 90 days; for patients of functional class I, day 0 / patients of functional class II, day 0 / patients of functional class III, day 0 / patients of functional class IV, day 0: 100 mg twice per day, 3 months, with standard therapy, before treatment
Experimental: The test for cardiotonic activity of product samples was performed by measuring the dynamics of alteration of the functional class of cardiac failure. The functional class can be determined quite accurately by analyzing the everyday life activities according to a specific activity scale. The authors of this technique suppose that the criteria developed by NYHA (New York Heart Association) cannot provide accurate determination of functional class, since widely used terms, such as “everyday physical activity”, “sub-everyday activity” are not specific. On the basis of multiple tests, in which patients exercised on a treadmill, the authors calculated a scale of metabolic expenses for each kind of life activity (see Goldman L., Hashimoto B., Cook F. et al., Comparative reproducibility and validity of systems for assessing cardiovascular functional class: advantages of a new specific activity scale (1981) Circulation 64 (6):1227-34). This inquiry is designed to be used by medical personnel, interviewing a patient. After calculating the sum of possible energy expenses, the functional class of the patient is determined according to the summary criteria of the specific activity scale (Table 6).
In the tests, the patient groups were formed so that the people of the same functional class were equally distributed among different groups. Severe patients (of IV functional class; those having oncological diseases or suffered myocardial infarction/stroke to the brain 60 days or less before) were not admitted to the tests. The distribution of patients among groups was governed by a random number generator. The tests were carried out by the following protocol. Each patient took 100 mg of the preparation twice per day (in the morning and after lunch) during 3 months—against the background of a standard therapy administered by a physician. […] All the samples and placebo were encoded before sending into the clinic, so none of those involved into the tests (patients, physicians, medical personnel and the manager of tests) was aware of the nature of samples.
The functional class of patients was determined several times: at the beginning of tests (before the formation of test groups) and after 30, 60 and 90 days of treatment with the test samples. The estimation was performed on the basis of the activity scale (Table 7).

Compound	died, 14 day ([1]; female, 5000 mg/kg)	Total died ([1]; female, 5000 mg/kg)	Number of micronuclei per 2000 cells (radioprotective properties) [2]	Number of micronuclei per 2000 cells (genotoxicity) [4]	patients of functional class I, day 30 [5]	patients of functional class II, day 30 [5]	patients of functional class III, day 30 [5]	patients of functional class IV, day 30 [5]	patients of functional class I, day 60 [5]	patients of functional class II, day 60 [5]	patients of functional class III, day 60 [5]	patients of functional class IV, day 60 [5]	patients of functional class I, day 90 [5]	patients of functional class II, day 90 [5]	patients of functional class III, day 90 [5]	patients of functional class IV, day 90 [5]	patients of functional class I, day 0 [5]	patients of functional class II, day 0 [5]	patients of functional class III, day 0 [5]	patients of functional class IV, day 0 [5]	also measured
O=C(O)CCC(=O)O [Example 6, succinic acid]	2	3	12.5 ± 1.0	4.5 ± 1.0	10	6	4	0	11	6	3	0	14	5	1	0	8	7	5	0	died, 11 day ([1]; female, 5000 mg/kg, 11 day): 1; Eosinophils, 6 h after ([3]; listed as Ex. 6): 1.0 ± 2%; Lymphocytes, 6 h after ([3]; listed as Ex. 6): 74 ± 6%; Number of leukocytes in 1 μl of blood, 6 h after ([3]; listed as Ex. 6): 7000; Segmentated cells, 6 h after ([3]; listed as Ex. 6): 25 ± 3%; Eosinophils, before ([3]; listed as Ex. 6): 2 ± 2%; Lymphocytes, before ([3]; listed as Ex. 6): 77 ± 5%; Number of leukocytes in 1 μl of blood, before ([3]; listed as Ex. 6): 5800; Segmentated cells, before ([3]; listed as Ex. 6): 21 ± 3%
O=C(O)CCC(=O)O [Example 10, succinic acid]	2	3	12.5 ± 1.0	5.0 ± 1.0	10	5	4	0	10	7	3	0	14	5	1	0	8	7	5	0	died, 13 day ([1]; female, 5000 mg/kg): 1; Eosinophils, 6 h after ([3]; listed as Ex. 10): 1.5 ± 2%; Lymphocytes, 6 h after ([3]; listed as Ex. 10): 74 ± 4%; Number of leukocytes in 1 μl of blood, 6 h after ([3]; listed as Ex. 10): 7000; Segmentated cells, 6 h after ([3]; listed as Ex. 10): 24 ± 4%; Eosinophils, before ([3]; listed as Ex. 10): 2 ± 2%; Lymphocytes, before ([3]; listed as Ex. 10): 76 ± 5%; Number of leukocytes in 1 μl of blood, before ([3]; listed as Ex. 10): 5800; Segmentated cells, before ([3]; listed as Ex. 10): 22 ± 3%
O=C(O)CCC(=O)O [Example 1, succinic acid, reference compound]	–	0	25.5 ± 1.0	5.5 ± 0.8	8	7	5	0	9	6	5	0	9	7	4	0	8	7	5	0	animals died, extra test with doubled dose ([1]; 10000 mg/kg): Not a single animal died; Eosinophils, 6 h after ([3]; listed as Ex. 1): 0%; Lymphocytes, 6 h after ([3]; listed as Ex. 1): 69 ± 5%; Number of leukocytes in 1 μl of blood, 6 h after ([3]; listed as Ex. 1): 7900; Segmentated cells, 6 h after ([3]; listed as Ex. 1): 29 ± 3%; Eosinophils, before ([3]; listed as Ex. 1): 2 ± 4%; Lymphocytes, before ([3]; listed as Ex. 1): 78 ± 4%; Number of leukocytes in 1 μl of blood, before ([3]; listed as Ex. 1): 5900; Segmentated cells, before ([3]; listed as Ex. 1): 21 ± 2%
O=C(O)CCC(=O)O [Example 9, succinic acid]	1	3	11.0 ± 1.6	5.0 ± 1.0	10	6	4	0	11	6	3	0	14	5	1	0	8	7	5	0	died, 13 day ([1]; female, 5000 mg/kg): 2; Eosinophils, 6 h after ([3]; listed as Ex. 9): 1.5 ± 2%; Lymphocytes, 6 h after ([3]; listed as Ex. 9): 74 ± 6%; Number of leukocytes in 1 μl of blood, 6 h after ([3]; listed as Ex. 9): 7000; Segmentated cells, 6 h after ([3]; listed as Ex. 9): 25 ± 6%; Eosinophils, before ([3]; listed as Ex. 9): 2 ± 4%; Lymphocytes, before ([3]; listed as Ex. 9): 76 ± 6%; Number of leukocytes in 1 μl of blood, before ([3]; listed as Ex. 9): 5800; Segmentated cells, before ([3]; listed as Ex. 9): 22 ± 3%
